In ChEMBL document CHEMBL6153147 (J Med Chem, 2025):
Activity calls are given as the source filed them. The rule behind the calls is not given here.

Legend:
[1] = Acute toxicity in mouse assessed as damage in heart at 500 mg/kg, IG qd treated for 7 days by H and E staining based analysis; type: organism-based; conditions: in vivo, po, 168 h, time 7 day
[2] = Cmax in C57BL/6 mouse at 10 mg/kg, po measured for 0.5 to […] htr by LC-MS/MS analysis; type: ADME, organism-based; conditions: in vivo, time 0.5-12 hrs
[3] = species on record: Homo sapiens; assay: Inhibition of human ABL assessed as residual activity at 10 uM by kinome selectivity profiling analysis relative to control
[4] = test system: HL-60; assay: cells; conditions: Homo sapiens
[5] = Half life in C57BL/6 mouse at 1 mg/kg, iv measured for 0.5 to 12 htr by LC-MS/MS analysis; type: ADME, organism-based; conditions: in vivo, time 0.5-12 hrs
[6] = Tmax in C57BL/6 mouse at 1 mg/kg, iv measured for 0.5 to 12 htr by LC-MS/MS analysis; type: ADME, organism-based; conditions: in vivo, time 0.5-12 hrs
[7] = Metabolic stability in dog liver microsomes assessed as half life preincubated for 5 mins followed by NADPH addition by LC-MS/MS analysis; type: ADME, Canis lupus familiaris, Microsome
[8] = Acute hematopoietic toxicity in mouse assessed as effect on red blood cells at 500 mg/kg, IG qd treated for 7 days; type: organism-based; conditions: in vivo, po, 168 h, time 7 day
[9] = Acute hematopoietic toxicity in mouse assessed as effect on biochemical indices at 500 mg/kg, IG qd treated for 7 days; type: organism-based; conditions: in vivo, po, 168 h, time 7 day
[10] = Acute hematopoietic toxicity in mouse assessed as effect on white blood cells at 500 mg/kg, IG qd treated for 7 days; type: organism-based; conditions: in vivo, po, 168 h, time 7 day
[11] = target: Calcium/calmodulin-dependent protein kinase kinase 1 (Homo sapiens) (UniProt Q8N5S9); assay: Inhibition of human CaMKK1 assessed as residual activity at 10 uM by kinome selectivity profiling analysis relative to control
Calcium/calmodulin-dependent protein kinase kinase 1 (Homo sapiens), sequence (Q8N5S9 whole entry, looked up): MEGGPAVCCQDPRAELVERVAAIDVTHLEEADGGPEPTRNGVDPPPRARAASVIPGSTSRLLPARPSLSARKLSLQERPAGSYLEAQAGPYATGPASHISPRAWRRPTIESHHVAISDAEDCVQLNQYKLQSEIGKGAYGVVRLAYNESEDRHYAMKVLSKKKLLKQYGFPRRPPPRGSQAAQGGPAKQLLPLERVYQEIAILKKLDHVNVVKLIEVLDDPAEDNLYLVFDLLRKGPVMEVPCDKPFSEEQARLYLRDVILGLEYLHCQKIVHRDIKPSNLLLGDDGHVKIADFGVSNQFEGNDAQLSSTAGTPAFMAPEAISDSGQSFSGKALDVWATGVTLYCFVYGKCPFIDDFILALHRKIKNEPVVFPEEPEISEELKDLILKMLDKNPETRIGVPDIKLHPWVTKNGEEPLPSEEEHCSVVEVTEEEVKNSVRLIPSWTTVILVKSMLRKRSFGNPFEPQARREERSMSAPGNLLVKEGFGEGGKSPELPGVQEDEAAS

[12] = test system: K562; assay: Antitumor activity against human K562 cells xenografted in BALB/c mouse assessed as suppression of tumor growth administered intragastrically for 11 days treated on every 3 to 4 days; type: functional, cell-based; conditions: dose 10-20 mg/kg, route ig, time 11.0 day
[13] = target: Serine/threonine-protein kinase PLK4 (Homo sapiens) (UniProt O00444); assay: Inhibition of human PLK4 assessed as residual activity at 10 uM by kinome selectivity profiling analysis relative to control
Serine/threonine-protein kinase PLK4 (Homo sapiens), sequence (O00444 whole entry): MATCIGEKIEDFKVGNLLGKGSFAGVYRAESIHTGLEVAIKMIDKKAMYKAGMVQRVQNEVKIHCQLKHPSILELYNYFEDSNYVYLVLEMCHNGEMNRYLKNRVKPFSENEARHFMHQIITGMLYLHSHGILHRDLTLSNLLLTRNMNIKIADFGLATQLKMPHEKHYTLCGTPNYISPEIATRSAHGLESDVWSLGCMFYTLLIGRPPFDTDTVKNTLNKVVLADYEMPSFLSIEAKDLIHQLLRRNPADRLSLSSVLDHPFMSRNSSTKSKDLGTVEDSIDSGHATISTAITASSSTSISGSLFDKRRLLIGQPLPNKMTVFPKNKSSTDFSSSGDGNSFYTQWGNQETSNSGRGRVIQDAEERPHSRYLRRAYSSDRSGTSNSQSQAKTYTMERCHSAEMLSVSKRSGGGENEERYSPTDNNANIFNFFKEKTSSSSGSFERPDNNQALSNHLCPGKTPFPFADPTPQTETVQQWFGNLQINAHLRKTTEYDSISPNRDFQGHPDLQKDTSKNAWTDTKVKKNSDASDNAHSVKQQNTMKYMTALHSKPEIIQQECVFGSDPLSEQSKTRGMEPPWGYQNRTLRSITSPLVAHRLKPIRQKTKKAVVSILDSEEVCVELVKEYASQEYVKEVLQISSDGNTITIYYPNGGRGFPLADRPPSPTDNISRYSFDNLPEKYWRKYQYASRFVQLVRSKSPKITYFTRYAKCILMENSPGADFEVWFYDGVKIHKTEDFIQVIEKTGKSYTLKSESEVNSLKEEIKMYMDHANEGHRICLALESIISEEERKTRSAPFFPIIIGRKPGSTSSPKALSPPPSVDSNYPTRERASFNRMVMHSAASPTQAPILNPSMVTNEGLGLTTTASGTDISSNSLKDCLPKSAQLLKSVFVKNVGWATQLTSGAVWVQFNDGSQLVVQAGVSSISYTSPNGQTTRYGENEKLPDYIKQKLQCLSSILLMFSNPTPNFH

[14] = Tmax in C57BL/6 mouse at 10 mg/kg, po measured for 0.5 to 12 htr by LC-MS/MS analysis; type: ADME, organism-based; conditions: in vivo, time 0.5-12 hrs
[15] = Half life in C57BL/6 mouse at 10 mg/kg, po measured for 0.5 to 12 htr by LC-MS/MS analysis; type: ADME, organism-based; conditions: in vivo, time 0.5-12 hrs
[16] = target: Eukaryotic translation initiation factor 2-alpha kinase 3 (Homo sapiens) (UniProt Q9NZJ5); assay: Inhibition of human PEK assessed as residual activity at 10 uM by kinome selectivity profiling analysis relative to control
Eukaryotic translation initiation factor 2-alpha kinase 3 (Homo sapiens), sequence (Q9NZJ5 whole entry): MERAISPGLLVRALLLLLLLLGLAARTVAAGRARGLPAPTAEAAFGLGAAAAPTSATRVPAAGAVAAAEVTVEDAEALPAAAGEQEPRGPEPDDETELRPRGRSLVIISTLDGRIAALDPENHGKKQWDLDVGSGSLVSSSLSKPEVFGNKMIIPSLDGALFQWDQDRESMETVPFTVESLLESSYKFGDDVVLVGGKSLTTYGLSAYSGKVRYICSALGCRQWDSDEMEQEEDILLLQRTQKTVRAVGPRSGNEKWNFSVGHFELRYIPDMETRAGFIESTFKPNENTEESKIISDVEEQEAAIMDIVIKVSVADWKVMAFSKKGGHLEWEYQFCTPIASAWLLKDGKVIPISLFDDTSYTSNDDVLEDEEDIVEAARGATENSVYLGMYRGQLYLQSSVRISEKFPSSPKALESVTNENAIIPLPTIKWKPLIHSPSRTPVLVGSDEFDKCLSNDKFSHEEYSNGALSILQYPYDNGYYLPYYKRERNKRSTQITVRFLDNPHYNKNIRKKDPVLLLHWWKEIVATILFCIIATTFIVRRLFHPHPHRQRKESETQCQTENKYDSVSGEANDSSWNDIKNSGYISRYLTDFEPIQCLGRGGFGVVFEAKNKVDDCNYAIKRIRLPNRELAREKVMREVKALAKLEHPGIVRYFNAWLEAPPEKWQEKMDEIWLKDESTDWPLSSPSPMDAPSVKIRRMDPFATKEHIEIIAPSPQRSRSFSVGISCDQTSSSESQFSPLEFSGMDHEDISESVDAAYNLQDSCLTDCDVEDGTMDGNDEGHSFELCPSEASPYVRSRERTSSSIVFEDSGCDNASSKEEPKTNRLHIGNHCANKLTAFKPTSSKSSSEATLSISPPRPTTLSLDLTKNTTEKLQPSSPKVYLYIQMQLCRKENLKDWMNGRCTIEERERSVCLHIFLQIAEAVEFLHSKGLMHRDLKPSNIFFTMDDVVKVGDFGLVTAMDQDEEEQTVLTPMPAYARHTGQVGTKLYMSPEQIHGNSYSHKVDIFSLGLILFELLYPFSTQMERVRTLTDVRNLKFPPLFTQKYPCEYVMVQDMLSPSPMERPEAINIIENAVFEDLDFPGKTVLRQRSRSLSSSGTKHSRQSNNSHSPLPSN

[17] = target: cGMP-dependent protein kinase 2 (Homo sapiens) (UniProt Q13237); assay: Inhibition of human PRKG2 assessed as residual activity at 10 uM by kinome selectivity profiling analysis relative to control
[18] = target: Myosin-IIIb (Homo sapiens) (UniProt Q8WXR4); assay: Inhibition of human MYO3B assessed as residual activity at 10 uM by kinome selectivity profiling analysis relative to control
[19] = Metabolic stability in human liver microsomes assessed as intrinsic clearance preincubated for 5 mins followed by NADPH addition by LC-MS/MS analysis; type: ADME, Microsome; conditions: read-out: CLH
[20] = MRT (0 to t) in C57BL/6 mouse at 1 mg/kg, iv measured for 0.5 to 12 htr by LC-MS/MS analysis; type: ADME, organism-based; conditions: in vivo, time 0.5-12 hrs
[21] = test system: HEK-293T; assay: Cytotoxicity against HEK293T cells by CCK8 assay; type: toxicity, cell-based; conditions: human, dose 0.1-30 µM
[22] = target: Serine/threonine-protein kinase PLK3 (Homo sapiens, UniProt Q9H4B4); assay: Inhibition of human PLK3 assessed as residual activity at 10 uM by kinome selectivity profiling analysis relative to control
Serine/threonine-protein kinase PLK3, sequence (Q9H4B4 whole entry, looked up): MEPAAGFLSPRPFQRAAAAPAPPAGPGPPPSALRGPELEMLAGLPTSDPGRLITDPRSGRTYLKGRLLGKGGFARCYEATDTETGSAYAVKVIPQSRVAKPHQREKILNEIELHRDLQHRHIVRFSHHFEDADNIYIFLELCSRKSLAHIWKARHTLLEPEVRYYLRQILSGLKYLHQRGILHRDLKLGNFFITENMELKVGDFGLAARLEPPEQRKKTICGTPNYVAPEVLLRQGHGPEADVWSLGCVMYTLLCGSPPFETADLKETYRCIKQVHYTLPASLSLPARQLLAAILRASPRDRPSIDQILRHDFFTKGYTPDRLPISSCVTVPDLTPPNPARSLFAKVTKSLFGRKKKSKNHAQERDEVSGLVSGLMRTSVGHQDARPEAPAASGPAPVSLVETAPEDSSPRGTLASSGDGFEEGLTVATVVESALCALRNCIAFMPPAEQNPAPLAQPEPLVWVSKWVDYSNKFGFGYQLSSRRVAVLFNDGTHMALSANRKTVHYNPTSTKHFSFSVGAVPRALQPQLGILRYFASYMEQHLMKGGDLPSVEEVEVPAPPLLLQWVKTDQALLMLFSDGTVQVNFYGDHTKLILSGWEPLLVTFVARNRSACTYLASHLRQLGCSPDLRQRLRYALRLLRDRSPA

[23] = target: Epidermal growth factor receptor (Homo sapiens) (UniProt P00533); assay: Inhibition of human EGFR assessed as residual activity at 10 uM by kinome selectivity profiling analysis relative to control
Epidermal growth factor receptor (Homo sapiens), sequence (P00533 whole entry): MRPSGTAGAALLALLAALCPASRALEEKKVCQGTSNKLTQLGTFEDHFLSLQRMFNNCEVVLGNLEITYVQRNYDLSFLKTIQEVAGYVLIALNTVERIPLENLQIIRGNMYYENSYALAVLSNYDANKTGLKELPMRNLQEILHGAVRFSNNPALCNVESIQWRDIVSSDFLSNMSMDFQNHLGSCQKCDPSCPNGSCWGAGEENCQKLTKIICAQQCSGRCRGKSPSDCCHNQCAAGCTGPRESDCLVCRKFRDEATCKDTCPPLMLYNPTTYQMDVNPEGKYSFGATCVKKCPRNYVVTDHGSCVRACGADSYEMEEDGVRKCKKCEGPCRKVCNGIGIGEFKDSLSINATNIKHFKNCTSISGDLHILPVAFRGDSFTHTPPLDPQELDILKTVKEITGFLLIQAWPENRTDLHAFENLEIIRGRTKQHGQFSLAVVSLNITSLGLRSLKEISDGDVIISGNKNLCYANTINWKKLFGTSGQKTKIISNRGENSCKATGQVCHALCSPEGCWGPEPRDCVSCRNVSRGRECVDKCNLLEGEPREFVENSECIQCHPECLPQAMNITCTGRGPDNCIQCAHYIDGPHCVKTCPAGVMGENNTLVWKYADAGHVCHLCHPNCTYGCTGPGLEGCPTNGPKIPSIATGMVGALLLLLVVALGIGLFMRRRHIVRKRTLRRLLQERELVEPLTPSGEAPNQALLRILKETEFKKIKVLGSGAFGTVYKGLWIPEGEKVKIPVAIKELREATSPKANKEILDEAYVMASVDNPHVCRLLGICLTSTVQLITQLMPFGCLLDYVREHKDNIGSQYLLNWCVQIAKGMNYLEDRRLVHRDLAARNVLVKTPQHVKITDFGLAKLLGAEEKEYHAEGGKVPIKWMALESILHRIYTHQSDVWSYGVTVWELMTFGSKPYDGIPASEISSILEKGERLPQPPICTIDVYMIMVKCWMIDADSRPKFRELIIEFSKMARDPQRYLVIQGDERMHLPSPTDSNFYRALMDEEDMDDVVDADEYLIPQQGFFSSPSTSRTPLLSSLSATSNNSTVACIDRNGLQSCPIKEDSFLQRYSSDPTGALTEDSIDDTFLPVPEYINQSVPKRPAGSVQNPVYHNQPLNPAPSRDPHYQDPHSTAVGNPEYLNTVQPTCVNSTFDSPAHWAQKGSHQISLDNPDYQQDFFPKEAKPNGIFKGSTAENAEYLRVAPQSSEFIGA

[24] = test system: NCI-H460; assay: cells; conditions: Homo sapiens
[25] = Acute toxicity in mouse assessed as damage in lung at 500 mg/kg, IG qd treated for 7 days by H and E staining based analysis; type: organism-based; conditions: in vivo, po, 168 h, time 7 day
[26] = target: Voltage-gated inwardly rectifying potassium channel KCNH2 (Homo sapiens, UniProt Q12809); assay: Inhibition of hERG transfected in CHO cells; type: toxicity, cell-based
[27] = species on record: Homo sapiens; assay: Inhibition of human HRI assessed as residual activity at 10 uM by kinome selectivity profiling analysis relative to control
[28] = AUC (0 to t) in C57BL/6 mouse at 1 mg/kg, iv measured for 0.5 to […] htr by LC-MS/MS analysis; type: ADME, organism-based; conditions: in vivo, time 0.5-12 hrs
[29] = Selectivity ratio of IC50 for inhibition of human PLK2 using ATF2 as substrate to IC50 for inhibition of human PLK1 using ATF2 as substrate
[30] = test system: A549; assay: cells; conditions: Homo sapiens
[31] = Toxicity in BALB/c mouse xenografted with human K562 cells assessed as change in body weight at 10 to 20 mg/kg, IG for 11 days treated on every 3 to 4 days; type: organism-based; conditions: in vivo, po, 264 h, dose 10-20 mg/kg, time 11 day
[32] = target: T1, Serine/threonine-protein kinase PLK1 (Homo sapiens, UniProt P53350); assay: Inhibition of human PLK1 assessed as residual activity at 10 uM by kinome selectivity profiling analysis relative to control
T1 sequence (P53350 whole entry): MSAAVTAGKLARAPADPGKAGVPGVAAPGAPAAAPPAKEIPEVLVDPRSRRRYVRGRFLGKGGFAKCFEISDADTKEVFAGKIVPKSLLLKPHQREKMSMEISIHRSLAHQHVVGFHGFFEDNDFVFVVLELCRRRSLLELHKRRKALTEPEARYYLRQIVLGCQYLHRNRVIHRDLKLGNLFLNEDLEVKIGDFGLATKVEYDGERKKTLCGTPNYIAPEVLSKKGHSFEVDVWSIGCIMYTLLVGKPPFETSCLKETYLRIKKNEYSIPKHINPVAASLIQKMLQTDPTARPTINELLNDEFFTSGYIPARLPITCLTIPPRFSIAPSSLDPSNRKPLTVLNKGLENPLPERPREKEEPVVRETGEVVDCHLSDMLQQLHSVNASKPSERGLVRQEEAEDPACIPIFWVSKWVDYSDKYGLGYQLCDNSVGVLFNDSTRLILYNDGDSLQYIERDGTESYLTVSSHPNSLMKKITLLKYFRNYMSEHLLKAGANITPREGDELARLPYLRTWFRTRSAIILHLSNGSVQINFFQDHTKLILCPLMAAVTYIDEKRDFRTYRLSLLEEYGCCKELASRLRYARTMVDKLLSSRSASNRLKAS

[33] = AUC (0 to infinity) in C57BL/6 mouse at 10 mg/kg, po measured for 0.5 to 12 htr by LC-MS/MS analysis; type: ADME, organism-based; conditions: in vivo, time 0.5-12 hrs
[34] = target: Serine/threonine-protein kinase PLK2 (Homo sapiens, UniProt Q9NYY3); assay: Inhibition of human PLK2 using ATF2 as substrate incubated for 40 mins in presence of [gamma-33P]ATP/Mg acetate by scintillation counting analysis
[35] = target: Serine/threonine-protein kinase PLK4 (Homo sapiens) (UniProt O00444); assay: Inhibition of human PLK4 assessed as residual activity at 10 uM by kinome selectivity profiling analysis
[36] = target: T1, Serine/threonine-protein kinase PLK1; assay: Inhibition of human PLK1 using ATF2 as substrate incubated for 40 mins in presence of [gamma-33P]ATP/Mg acetate by scintillation counting analysis
[37] = Clearance in C57BL/6 mouse at 1 mg/kg, iv measured for 0.5 to […] htr by LC-MS/MS analysis; type: ADME, organism-based; conditions: in vivo, time 0.5-12 hrs
[38] = C0 in C57BL/6 mouse at 1 mg/kg, iv measured for 0.5 to 12 htr by LC-MS/MS analysis; type: ADME, organism-based; conditions: in vivo, time 0.5-12 hrs
[39] = target: Cytochrome P450 2C19 (Homo sapiens, UniProt P33261); assay: Inhibition of CYP2C19 in human liver microsomes using S-mephenytoin as substrate preincubated with compound followed by substrate addition measured after 10 mins in presence of NADPH by LC-MS/MS analysis; type: ADME, Microsome
[40] = Acute toxicity in mouse assessed as body weight change at 500 mg/kg, IG qd treated for 7 days; type: organism-based; conditions: in vivo, po, 168 h, time 7 day

Q: For CC[C@@H]1C(=O)N(C)c2cnc(Nc3cc(N4CCN(C)CC4)cc(Cl)c3OCCCO)nc2N1C1CCCC1, which Activity [1] is on record?
A: Non-toxic

Q: What about the Cmax [2] of the same molecule?
A: 328 ng/mL

Q: And the Activity [3]?
A: 108%

Q: What about the IC50 [4] of the same molecule?
A: 59 nM

Q: And the half-life [5]?
A: 35.4 min

Q: What about the Tmax [6] of the same molecule?
A: 4.98 min

Q: What about the half-life [7] of the same molecule?
A: 17.3 min

Q: What about the Activity [8] of the same molecule?
A: Non-toxic

Q: And the Activity [9]?
A: Non-toxic

Q: And the Activity [10]?
A: Non-toxic

Q: And the Activity [11]?
A: 70%

Q: What about the Activity [12] of the same molecule?
A: Dose-dependent-effect; Demonstrated Comparable Or Remarkably Improved Therapeutic Efficacy Compared To Bi 2536 At 10 Mg/Kg (I.P.)

Q: And the Activity [13]?
A: 104%

Q: And the Tmax [14]?
A: 45 min

Q: What about the half-life [15] of the same molecule?
A: 72 min

Q: And the Activity [16]?
A: 80%

Q: And the Activity [17]?
A: 110%

Q: What about the Activity [18] of the same molecule?
A: 44%

Q: And the CLint scaled [19]?
A: 85.6 mL/min/kg

Q: And the MRT last [20]?
A: 39.6 min

Q: What about the Activity [21] of the same molecule?
A: Dose-dependent-effect

Q: And the Activity [22]?
A: 11%

Q: What about the Activity [23] of the same molecule?
A: 107%

Q: What about the IC50 [24] of the same molecule?
A: 12 nM

Q: And the Activity [25]?
A: Non-toxic

Q: And the IC50 [26]?
A: 44200 nM

Q: And the Activity [27]?
A: 54%

Q: What about the AUC(0-t) [28] of the same molecule?
A: 181 ng·h/mL

Q: And the ratio [29]?
A: > 601

Q: What about the IC50 [30] of the same molecule?
A: 32 nM

Q: What about the Activity [31] of the same molecule?
A: Non-toxic

Q: And the Activity [32]?
A: -2%

Q: What about the AUC(0-inf) [33] of the same molecule?
A: 825 ng·h/mL

Q: What about the IC50 [34] of the same molecule?
A: > 10000 nM

Q: What about the inhibition [35] of the same molecule?
A: inactive

Q: What about the IC50 [36] of the same molecule?
A: 20 nM

Q: And the clearance [37]?
A: 91 mL/min/kg

Q: And the C0 [38]?
A: 328 ng/mL

Q: And the IC50 [39]?
A: 1900 nM

Q: What about the Activity [40] of the same molecule?
A: Non-toxic
